# Measured values from US20260344662A1, “METHOD FOR INDUCING HIGH-TEMPERATURE STRESS TOLERANCE IN PLANTS” (AJINOMOTO CO., INC., priority 2023, published 2026).
# Key:
# [1] = tested on: tomato; experiment: Example 1: heat stress tolerance of tomato (number of fruits) with Val and/or IAA; type: in vivo, cultivar Regina; conditions: heat stress max 35 °C; foliar spray; Val 5 mM or 10 mM; IAA 10 μM; Val 5 mM & IAA 10 μM
# Description: In the present Example, Val (valine) and IAA (indole-3-acetic acid) were applied to tomato either alone or in combination, and heat stress tolerance-inducing effects were evaluated.
# • Tomato: cultivar Regina
# Two tomato seeds were sown in a pot (Sakata) having a soil diameter of 10.5 cm and containing 350 g of a mixed soil of potting soil (Kumiai No. 1) and vermiculite (potting soil:vermiculite=3:1 (v:v)). Two weeks later, the tomato plants were thinned to leave one plant. Thirty-five days after the sowing, soil fertilization was performed with 100 mL of a 500-fold diluted Hyponex solution. Water supplementation was performed as appropriate.
# The non-heat stress treatment+water treatment group (No. 1) was used as a positive control. The heat stress treatment groups included five treatment groups (Nos. 2 to 6). The material treatment and the heat treatment were performed in two separate sets. The first set of material treatment was performed 40 days after the sowing, when flowering of the tomato plants had started. The second set of material treatment was performed 46 days after the sowing. The material treatment was performed by preparing an aqueous material solution containing 0.1% spreading agent “Approach BI”, and performing foliar spraying. To each tomato plant, 6 mL of the aqueous material solution was sprayed. […]
# [2] = tested on: SLHsFA2; experiment: Example 3: expression of heat stress tolerance-related gene SLHsFA2 (real-time PCR); type: in vivo, tomato (cultivar: Regina); conditions: 5 mM Val; 10 μM IAA; 50 μM PAA; combinations 5 mM Val + 10 μM IAA, 5 mM Val + 50 μM PAA; 24 hours after spraying; n=3; relative to Actin
# Description: (§1) Plants of tomato (cultivar: Regina) were used in evaluation of the genes.
# (§2) Two tomato seeds were sown in a slit pot having a diameter of 10.5 cm (10.5 cm (top diameter)×8.8 cm (height)) filled with potting soil, and cultivated in a biotron at a temperature of 23 °C, with a light period of 14 hours (6:00 to 20:00) and a dark period of 10 hours (20:00 to 6:00). As the potting soil, a mixture of Kumiai Nippi Engei Baido No. 1 (Nihon Hiryo Co., Ltd.) and vermiculite at 3:1 (volume ratio) was used. After one week, thinning was performed to leave one plant, and cultivation was continued.
# (§3) The material was dissolved in water before use. Twenty-five days after the sowing, 0.1% spreading agent “Approach BI” (Kao Corporation) was added to the material treatment solution, and the resulting solution was sprayed over the entire plant. For each treatment group, three tomato plants were used, and 2 mL of the treatment solution per plant was sprayed. Twenty-four hours after the spraying, a 1.5 cm×1.5 cm section was collected as a sample from the second true leaf.
# (§4) From each leaf sample collected from tomato, RNA was extracted using a Maxwell™ RSC Plant RNA Kit (Promega) according to the manufacturer's instructions. Subsequently, single-stranded cDNA was synthesized from the extracted RNA using a ReverTra Ace™ qPCR RT Master Mix (TOYOBO). As genes associated with heat stress tolerance in tomato, the following two genes were evaluated: Heat shock factor A2 (HsFA2) and Ascorbate peroxidases (APX). Using the above cDNA as a template, real-time PCR was performed using the primers shown in Table 6, and the expression level of each gene was calculated as a relative expression level with respect to the Actin gene.
# [3] = tested on: SLAPX; experiment: Example 3: expression of heat stress tolerance-related gene SLAPX (real-time PCR); type: in vivo, tomato (cultivar: Regina); conditions: 5 mM Val; 10 μM IAA; 50 μM PAA; combinations 5 mM Val + 10 μM IAA, 5 mM Val + 50 μM PAA; 24 hours after spraying; n=3; relative to Actin
# Description: as §1, §2, §3, §4
# [4] = tested on: plant male sterility caused by high temperatures; conditions: in vivo; cited from earlier work
# [5] = tested on: tomato; experiment: Example 2: heat stress tolerance of tomato (number and weight of fruits) with Val and/or PAA; type: in vivo, cultivar Regina; conditions: Val 5 mM, PAA 10 μM
# Description: In the present Example, Val (valine) and PAA (phenylacetic acid) were applied to tomato plants individually or in combination, and their heat stress tolerance-inducing effects were evaluated.
# Same as in Example 1, except that the five treatment groups shown in Table 3 were evaluated under the cultivation conditions shown in Table 4 (the maximum high temperature was 37 °C).
# [6] = tested on: tomato; experiment: Example 4: tomato pot test, harvested fruit weight under heat stress; type: in vivo, tomato: Home Momotaro, rootstock (Boranchi); conditions: PAA 10 μM, Val 5 mM, PAA higher than Val
# Description: • Tomato: Home Momotaro, rootstock (Boranchi).
# Sandy loam (SL) was filled into a planter at 0.18 m^2/planter, and two tomato plants were planted therein. As a fertilizer, OK-F-1 (OAT Agrio Co., Ltd.) was used. The fertilizer was diluted 2000-fold with water, and applied as appropriate at 2000 mL/plant/application. Topping was performed with one leaf left above the fourth truss, and axillary buds were removed as appropriate. Cultivation was performed in a glasshouse under natural light.
# Five treatment groups were evaluated (Table 7). The water-treated non-heat stress treatment group was used as a positive control. The other four treatment groups were subjected to heat treatment. The heat treatment was performed twice. The first treatment was performed for 10 days at the pre-flowering stage of the first truss, and the second treatment was performed for 10 days at the flowering stage of the fourth truss. The heat treatment was performed by opening and closing side windows and roof windows of the glasshouse (with a target maximum temperature of 35 °C in the glasshouse).
# The material was applied by spraying onto stems and leaves at 50 mL per plant on the start day of the heat treatment and three days thereafter. To each material, a spreading agent (Approach BI (Kao)) was added to a final concentration of 0.05%.
# Harvesting and examination were performed 11 times until the fourth truss matured. […]
# [7] = tested on: rice; experiment: Example 5: rice pot test, seed weight and seed fertility under heat stress; type: in vivo, cultivar Nipponbare; conditions: PAA 10 μM; for fertile seed weight compared to water treatment (in words) / seed fertility compared to water treatment (in words) / total seed weight compared to water treatment (in words) / Fertile seed weight, relative value to heat treatment + water treatment group / Fertility (seed fertility), relative value to heat treatment + water treatment group / Total seed weight, relative value to heat treatment + water treatment group: Val 5 mM; for Fertile seed weight, relative value to heat treatment + water treatment group / Fertility (seed fertility), relative value to heat treatment + water treatment group / Total seed weight, relative value to heat treatment + water treatment group: heat treatment (38 °C), water = 100%
# Description: • Rice cultivar: Nipponbare
# Prior to sowing, rice seeds were sterilized with 25% antiformin and 70% ethanol. Filter paper was placed in a Petri dish, and rice seeds were placed on the filter paper. The filter paper was sufficiently wetted with sterile water, and the rice seeds were germinated in a dark place at 25 °C. Six days after the sowing, the germinated rice seeds were planted in a cell tray. As the potting soil in the cell tray, a mixed soil of Kumiai Baido No. 1: vermiculite=7:3 (v/v) was used. The rice plants planted in the cell tray were cultivated in a chamber under the following conditions: 14 h/light period at 28 °C and 10 h/dark period at 22 °C.
# On June 20, rice seedlings cultivated in the chamber for 18 days were transplanted to magnet pots, and cultivated until harvest in an outdoor cultivation water tank apparatus. In the magnet pots, 2.3 kg of a potting soil of Kumiai Baido No. 1: vermiculite=7:3 (v/v) was used, and two rice seedlings were transplanted to each pot. During the cultivation, water was appropriately managed. From one month after the transplantation, additional fertilizer was applied with ammonium sulfate and Hyponex three times at intervals of one week.
# At the heading stage, one week after the start of heading of rice, material spraying and heat treatment were each performed twice at intervals of one week. The heat treatment was performed about 16 hours after the spraying of a material. Five pots were included in each treatment group as replicates. The material was diluted with water to prepare a treatment solution, and 0.1% spreading agent “Approach BI” (Kao Corporation) was added to the treatment solution, followed by spraying 60 mL per pot of the prepared aqueous material solution onto the whole plants. For the heat treatment, the rice plants were placed in a mini-house for 6 hours from 10:00 to 16:00, and the temperature was about 37 °C to 39 °C. After completion of the heat treatment, the plants were further cultivated, and on October 8, […] after transplanting to Wagner pots, an aboveground part of each plant was cut and harvested.
# The cut aboveground parts of the plants, including seeds, were dried for 15 days, and the total seed weight, the fertile seed weight, and the seed fertility were examined. The fertile seed weight is the weight of seeds obtained by removing sterile seeds of empty husks using a threshing machine. From the total seeds, 10 mL of seeds (about 100 to 150 grains) was randomly taken out into a 50-mL Falcon tube, and fertile seeds and sterile seeds were separated from each other, followed by counting their numbers. The proportion (percentage) of the fertile seeds to the total number of seeds was defined as the seed fertility.
# [8] = tested on: plants; conditions: in vivo; cited from earlier work
smiles,measurement,setting,value
"O=C(O)Cc1c[nH]c2ccccc12 [IAA, indole-3-acetic acid]",number of tomato fruits compared to heat stress treatment+water treatment group,[1],markedly increased
same,expression of SLHsfA2 compared to Mock (water),[2],no difference in expression
same,expression of SLAPX compared to Mock (water),[3],no difference in expression
same,reversal of plant male sterility caused by high temperatures,[4],function of reversing plant male sterility caused by high temperatures
"O=C(O)Cc1ccccc1 [PAA, phenylacetic acid]",number of tomato fruits compared to heat stress treatment+water treatment group,[5],no large difference
same,expression of SLHsfA2 compared to Mock (water),[2],no difference in expression
same,expression of SLAPX compared to Mock (water),[3],no difference in expression
same,harvested fruit weight compared to water-sprayed heat stress group,[6],exceeded the water-sprayed group
same,increase in seed fertility,"[7]; Val 5 mM & PAA 10 μM, heat treatment",≥ 20%
same,fertile seed weight compared to water treatment (in words),[7]; heat treatment,neither the treatment with Val alone nor the treatment with PAA alone showed significant differences
same,seed fertility compared to water treatment (in words),[7]; heat treatment,increased the seed fertility
same,total seed weight compared to water treatment (in words),[7]; heat treatment,neither the treatment with Val alone nor the treatment with PAA alone showed significant differences
same,"Fertile seed weight, relative value to heat treatment + water treatment group",[7],105.6%
same,"Fertility (seed fertility), relative value to heat treatment + water treatment group",[7],110.8%
same,"Total seed weight, relative value to heat treatment + water treatment group",[7],101.8%
"CC(C)[C@H](N)C(=O)O [Val, L-valine]",number of tomato fruits compared to heat stress treatment+water treatment group,[1],markedly increased
same,number of tomato fruits compared to heat stress treatment+water treatment group,[5],no large difference
same,expression of SLHsfA2 compared to Mock (water),[2],no difference in expression
same,expression of SLAPX compared to Mock (water),[3],no difference in expression
same,harvested fruit weight compared to water-sprayed heat stress group,[6],exceeded the water-sprayed group
same,fertile seed weight compared to water treatment (in words),[7]; heat treatment,neither the treatment with Val alone nor the treatment with PAA alone showed significant differences
same,seed fertility compared to water treatment (in words),[7]; heat treatment,increased the seed fertility
same,total seed weight compared to water treatment (in words),[7]; heat treatment,neither the treatment with Val alone nor the treatment with PAA alone showed significant differences
same,"Fertile seed weight, relative value to heat treatment + water treatment group",[7],98.7%
same,"Fertility (seed fertility), relative value to heat treatment + water treatment group",[7],123.9%
same,"Total seed weight, relative value to heat treatment + water treatment group",[7],93.9%
same,induction of heat stress tolerance in plants,[8],function of inducing heat stress tolerance in plants
